The values below come from paper PMC4762250, “Novel cis-selective and non-epimerisable C3 hydroxy azapodophyllotoxins targeting microtubules in cancer cells” (European Journal of Medicinal Chemistry, 2016).

As usually defined, the IC50 is the midpoint of a concentration-inhibition curve.

Molecules are shown by their SMILES. Like-named read-outs stand apart in the source and are kept apart here.

Assay [1] concerns microtubules in MCF-7 cells. Put plainly: Microtubule immunofluorescence assay (α-tubulin, confocal microscopy). It counts as cell-based, human. As to conditions: 250 nM, 6 h; for effect on tubulin cytoskeleton: MCF-7, interphase cells for 8e and 8b, all cells for podophyllotoxin; for induced defects in dividing cells: MCF-7 dividing cells. The procedure: In order to investigate the microtubule-destabilising ability of these analogues, experiments were conducted to determine their effects on the subcellular organisation of microtubules in vitro [27]. […] The nuclei of control interphase cells were relatively monomorphic. […] Analogue treated cells in interphase featured shorter microtubule filaments and slightly more disordered microtubule networks than control cells.
Following cell seeding (42 h) the media was replaced with fresh complete media containing 250 nM of podophyllotoxin, compound 8e and 8b or 0.01% DMSO. The cells were treated for 6 h with drug or diluent control then subjected to downstream immunofluorescence analysis (see tubulin immunofluorescence protocol).
The media was aspirated and the cells were washed once in ice-cold PBS before being fixed in 100% methanol at −20 °C for 10 min. The cells were then washed thrice in PBS and stored overnight at 4 °C. The following day cells were incubated in 150 μL of blocking solution (2% FBS [v/v], 2% BSA [w/v] in PBS pH 7.4) for 30 min. Blocking was followed by 1 h incubation with 100 μl of mouse anti-α tubulin antibody diluted 1:2000 in blocking solution. Cells were then washed 3 × 5min in PBS before being incubated with Alexa488 labelled, anti-mouse secondary antibody (1:400) and Hoechst 33342 (1 μg/ml) for 30 min. The cells were washed a final 3 × 5 min in PBS before coverslips were dipped once into PBS, once into dH2O and mounted onto glass slides with 12 μL of mounting medium (Dako oil). Three independent experiments were carried out in duplicate.
Confocal fluorescence microscopy analysis was conducted on a Leica SP5 inverted confocal laser scanning microscope. The microscope was equipped with a 63x oil-immersion objective and the 405 and 488 nm lasers were used. Gain and offset settings were optimised for each fluorescent channel within an experiment. Images were recorded using the sequential scanning mode to prevent fluorescence channel crosstalk/bleed-through. Images were scanned at 100 Hz with a line average of three to reduce noise.

For the next assay, the system named is MCF-7 and 22Rv1. Put plainly: Oncotest monolayer assay, results stated over both cell lines. It counts as cell-based, human. The settings on record: for concentration-effect curve: cell viability, ten concentrations up to 100 μM, Fig. 3. The procedure: (§1) The anticancer activity of compounds (8a-q) was evaluated using the Oncotest monolayer assay in the human prostate cancer cell line 22Rv1 and the human breast cancer cell line MCF-7, as an outsourced service. […] Antitumour activity was assessed after four days of treatment with the compounds using a propidium iodide based monolayer assay. Potency is expressed as absolute IC50 values, calculated by non-linear regression analysis following testing in triplicate. The seventeen inhibitors were tested at 10 concentrations in half-log increments up to 100 μM in triplicate.
(§2) A modified propidium iodide (PI) based monolayer assay was used to assess the anti-cancer activity of the compounds. Briefly, cells were harvested from exponential phase cultures, counted and plated in 96-well flat-bottom microtiter plates at a cell density of 8.000–12.000 cells/well. After a 24 h recovery period to allow the cells to resume exponential growth, 10 μl of culture medium (six control wells/plate) or culture medium with test compound were added. The compounds were applied in half-log increments at 10 concentrations in triplicate. After a total treatment period of 96 h, cells were washed with 200 μl PBS to remove dead cells and debris. Then, 200 μl of a solution containing 7 μg/mL propidium iodide (PI) was added. After an incubation period of 1–2 h at room temperature, fluorescence (FU) was measured using the EnSpire Multimode Plate Reader (excitation λ = 530 nm, emission λ = 620 nm) to quantify the amount of attached viable cells. IC50 values were calculated by 4-parameter non-linear curve fit using Oncotest Warehouse Software. For calculation of mean IC50 values the geometric mean was used.

Assay [2] relates to microtubules in MCF-7 cells. Put plainly: Microtubule repolymerisation assay, first variation (6 h pre-treatment). It counts as cell-based, human. The settings on record: 250 nM 6 h pre-treatment, 30 min on ice, rewarmed 37 °C 30 min. The procedure: (§3) Cold depolymerisation of the tubulin cytoskeleton in vitro, including in MCF-7 cells, can be achieved by relatively short incubations at 4 °C [27], [28], [29]. To test the ability of the compounds to impair microtubule polymerisation, following depolymerisation, two variations of a tubulin re-polymerisation assay were performed. In the first, MCF-7 cells were pre-treated for 6 h with 250 nM of the compounds before being incubated on ice for 30 min then rewarmed to 37 °C for a further 30 min. In the second variation, cells were first incubated on ice then rewarmed to 37 °C in the presence of the compounds (250 nM, 30 min total treatment time). Samples of cells were fixed post-cold depolymerisation and post-warm repolymerisation. In both variations, immunofluorescence for α-tubulin was performed and cells were imaged by confocal microscopy (Fig. 6 and 7). In control and treated cells, incubation on ice for 30 min led to total loss of filamentous tubulin and the protein was diffusely scattered throughout the cytoplasm. […] Upon increasing the temperature to 37 °C for 30 min there was clear repolymerisation of the microtubule network.
Following cell seeding (42 h) the media was replaced with drug (or diluent control) containing complete media and cells were treated for 6 h with 250 nM of podophyllotoxin, compound 8e, 8b or 0.01% DMSO. The plates were then placed on ice and cells were incubated at 4 °C for 30 min to depolymerise the tubulin cytoskeleton, [28], [30]. One set of cover slips for each treatment condition was prepared for tubulin immunofluorescence (see protocol below) and the remaining sets of cover slips were returned to the incubator (37 °C, 5% CO2) for 30 min to allow re-polymerisation of microtubules. Tubulin immunofluorescence was performed after the cells had been rewarmed for 30 min (see below). […]
(§4) Confocal fluorescence microscopy analysis was conducted on a Leica SP5 inverted confocal laser scanning microscope. […] Images were recorded using the sequential scanning mode to prevent fluorescence channel crosstalk/bleed-through. […]

The test system of assay [3] is human breast cancer cell line MCF-7. Put plainly: Oncotest propidium iodide monolayer cell proliferation assay, MCF-7. It counts as cell-based. The procedure: as §1, §2
In assay [4] the test system is microtubules in MCF-7 cells. Put plainly: Microtubule repolymerisation assay, second variation (no pre-treatment). It counts as cell-based, human. As to conditions: 30 min on ice, then rewarmed 37 °C 30 min in presence of 250 nM compound. The procedure: as §3
Following cell seeding (42 h), the plates were placed on ice for 30 min to cold-depolymerise the tubulin cytoskeleton. Control cold-depolymerised coverslips were then immediately prepared for tubulin immunofluorescence and the remaining coverslips were rewarmed and treated with 250 nM of podophyllotoxin, compound 8e, 8b or 0.01% DMSO for 30 min (37 °C, 5% CO2). Together with the controls these were then subjected to tubulin immunofluorescence.
The media was aspirated and the cells were washed once in ice-cold PBS before being fixed in 100% methanol at −20 °C for 10 min. The cells were then washed thrice in PBS and stored overnight at 4 °C. […]
as §4

The test system of assay [5] is human prostate cancer cell line 22Rv1. Put plainly: Oncotest propidium iodide monolayer cell proliferation assay, 22Rv1. As to conditions: mean absolute IC50, 96 h treatment, propidium iodide endpoint, triplicate. It counts as cell-based. The procedure: as §1, §2
On the set-up of assay [6]: method as in PMID 3290912. As to conditions: cis isomer versus podophyllotoxin; cited from earlier work.
Setting [7] is: Homo sapiens, MCF7, 96 h, mean absolute IC50, 96 h treatment, propidium iodide endpoint, triplicate, read-out: MCF-7 IC50.
Where [8] appears, read: mean absolute IC50, 96 h treatment, propidium iodide endpoint, triplicate, read-out: MCF-7 IC50.

Consider `O=C1OC[C@]2(O)Nc3c(c4cccnc4c4ncccc34)[C@@H](c3ccccc3C(F)(F)F)[C@@H]12` (mixture of isomers) [Compound 8e, (9aS, 12aR, 13R) and (9aR, 12aS, 13S) 9a-hydroxy-13-(2-(trifluoromethyl)phenyl)-9a,10,12a,13-tetrahydrofuro[3,4-b]pyrido[3,2-f][1,10]phenanthrolin-12(9H)-one], for which the “effect on tubulin cytoskeleton” value in assay [1] is “more subtle changes in the tubulin filaments and their organisation”. Further, the “induced defects in dividing cells” value in assay [1] is “aberrations of spindle morphology and polarity, nuclear atypia (pleomorphism, pyknosis) and uncongressed/misaligned chromosomes”. For the same compound, the concentration-effect curve entry with MCF-7 and 22Rv1 is listed as “sigmoidal concentration-effect curves with low bottom plateaus indicating total cell kill at higher test concentration”. Further, the “repolymerisation of tubulin following cold depolymerisation” value (“repolymerisation” for short) in assay [2] was “the microtubule cytoskeleton was still able to reform but mitotic defects and shorter filaments”; in assay [4], “the microtubule cytoskeleton was able to reform with negligible defects”. The concentration for half-maximal inhibition (IC50) was found to be 0.21 µM in assay [3] (setting [7]); 0.209 µM in assay [3] (setting [8]); 110 nM in assay [5] (Homo sapiens, 22Rv1, 96 h); 107 nM in assay [5].

With `O=C1OC[C@]2(O)Nc3c(c4cccnc4c4ncccc34)[C@@H](c3ccccc3OC(F)(F)F)[C@H]12` (mixture of isomers) [Compound 8b, (9aS, 12aS, 13S) and (9aR, 12aR, 13R) 9a-hydroxy-13-(2-(trifluoromethoxy)phenyl)-9a,10,12a,13-tetrahydrofuro[3,4-b]pyrido[3,2-f][1,10]phenanthrolin-12(9H)-one], the “effect on tubulin cytoskeleton” value in assay [1] is “more subtle changes in the tubulin filaments and their organisation”. For the same compound, the “induced defects in dividing cells” value in assay [1] was “aberrations of spindle morphology and polarity, nuclear atypia (pleomorphism, pyknosis) and uncongressed/misaligned chromosomes”. The concentration-effect curve result in the assay on MCF-7 and 22Rv1 is “sigmoidal concentration-effect curves with low bottom plateaus indicating total cell kill at higher test concentration”. Besides, the “repolymerisation” value in assay [2] was “the microtubule cytoskeleton was still able to reform but mitotic defects and shorter filaments”; in assay [4], “the microtubule cytoskeleton was able to reform with negligible defects”. Further, the IC50 in assay [3] (setting [7]) turned out to be 0.288 µM; in assay [5] (Homo sapiens, 22Rv1, 96 h), 165 nM.

Regarding `COc1cc([C@@H]2c3cc4c(cc3[C@H](O)[C@H]3COC(=O)[C@H]23)OCO4)cc(OC)c1OC` [Podophyllotoxin], the “effect on tubulin cytoskeleton” value in assay [1] is given as “dramatic disruption of the tubulin cytoskeleton”. Further, the “repolymerisation” value in assay [2] and in assay [4] was “significantly impaired the repolymerisation of tubulin following cold depolymerisation” each time. The IC50 in assay [3] (Homo sapiens, MCF7, 96 h, read-out: MCF-7 IC50 (μM)) worked out at 0.23 µM.

Regarding `COc1cc([C@@H]2c3cc4c(cc3[C@H](O)[C@H]3COC(=O)[C@@H]23)OCO4)cc(OC)c1OC` [picropodophyllin], the “less active than podophyllotoxin” value in assay [6] is given as 100 fold.

With `COc1cc([C@@H]2c3c(c4cccnc4c4ncccc34)N[C@@]3(O)COC(=O)[C@H]23)cc2c1OCO2` (mixture of isomers) [Compound 8p, (9aS, 12aR, 13R) and (9aR, 12aS, 13S) 9a-hydroxy-13-((5-methoxy-3,4-methylenedioxy)phenyl)-9a,10,12a,13-tetrahydrofuro[3,4-b]pyrido[3,2-f][1,10]phenanthrolin-12(9H)-one], the IC50 is < 10000 nM in the assay on MCF-7 and 22Rv1 (Homo sapiens, geometric mean over MCF-7 and 22Rv1, read-out: Mean IC50 values); 7.3 µM in assay [3] (setting [7]); 7.25 µM in assay [3] (setting [8]); 4000 nM in assay [5] (Homo sapiens, 22Rv1, 96 h); 4000 nM in assay [5].
